Results: patent US9079913B2, “Spiro-oxindole MDM2 antagonists” (The Regents of the University of Michigan, priority 2009, dated 2015)
“Also recorded” adds a separate entry of the source. Like-named read-outs stand apart in the source and are kept apart here.

Tests used:
[1] = In vitro microsomal stability, rat; type: in vitro ADME
[2] = tested on: Isogenic HCT-116 colon cancer cell lines; assay: cells; type: cell-based; conditions: Homo sapiens;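 also: cells grown in 96-well plates in McCoy's 5A medium with 10% FBS, exposed to compound for 4 days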
Experimental: Cells were seeded in 96-well flat bottom cell culture plates at a density of 2−3×10^3 cells/well with compounds and incubated for 4 days.

[3] = Animal weight in SJSA-1 xenograft studies; type: in vivo, C.B-17 SCID mice; conditions: SJSA-1 xenograft mice
Experimental: The size of tumors growing in the mice was measured in two dimensions using calipers. Tumor volume (mm^3)=(A×B2)/2 where A and B are the tumor length and width (in mm), respectively. During treatment, tumor volume and body weight was measured three times a week. After the treatment was stopped, tumor volume (FIGS. 7, 9, 11, and 36) and body weight (FIGS. 8, 10, 12, and 37) was measured at least once a week. Mice were kept for an additional 60 days for further observation of tumor growth and toxicity.
Before treatment began, tumors were allowed to grow to 60-140 mm^3 in volume, at which point the blood vessel supplies to the tumor should have been established. Mice with tumors within acceptable size range were randomized into treatment groups of 8 mice for experimental compounds and 10 mice for the Control group. Experimental compounds were given orally, once per day for 2-3 weeks. The Control group received vehicle alone (10% PEG 400: 3% Cremophor: 87% PBS).

SJSA-1 xenograft tumors = assay: In vivo efficacy, SJSA-1 xenograft model (tumor volume); parameters: species or system C.B-17 SCID mice; conditions: for % Tumor Growth Inhib. T/C Control 750 mm^3 D29: Exp. No. 3, SJSA-1 xenograft
[4] = In vitro microsomal stability, human; type: in vitro ADME
[5] = tested on: cancer cell lines with wild-type p53 / mutated or deleted p53 (ATCC); assay: Cell growth assay (WST-8), other cancer cell lines; type: cell-based; conditions: for IC50: Homo sapiens
[6] = Pharmacokinetic studies in rats; type: in vivo, rat; conditions: rat, IV, 5 mg/kg, plasma, parent compound
Experimental: Pharmacokinetic studies on MDM2 inhibitors were carried out in rat. For comparison, the MDM2 inhibitor, AT-219, was also studied.

[7] = HCT-116, read-out: HCT-116 (p53 wild-type) IC50
[8] = LNCaP, read-out: LNCAP (p53 wild-type) IC50
[9] = SJSA-1, read-out: SJSA-1 (p53 wild-type) IC50

Row | SMILES | % of compound remaining when incubated in rat liver microsomes with NADPH ([1]; 0 min) [%] | % of compound remaining when incubated in rat liver microsomes with NADPH ([1]; 5 min) [%] | % of compound remaining when incubated in rat liver microsomes with NADPH ([1]; 10 min) [%] | % of compound remaining when incubated in rat liver microsomes with NADPH ([1]; 15 min) [%] | % of compound remaining when incubated in rat liver microsomes with NADPH ([1]; 30 min) [%] | % of compound remaining when incubated in rat liver microsomes with NADPH ([1]; 45 min) [%] | % of compound remaining when incubated in rat liver microsomes with NADPH ([1]; 60 min) [%] | IC50 [2, 7] [µM] | weight loss in the animals (in words) [3] | % of compound remaining when incubated in human liver microsomes with NADPH ([4]; 0 min) [%] | % of compound remaining when incubated in human liver microsomes with NADPH ([4]; 5 min) [%] | % of compound remaining when incubated in human liver microsomes with NADPH ([4]; 10 min) [%] | % of compound remaining when incubated in human liver microsomes with NADPH ([4]; 15 min) [%] | % of compound remaining when incubated in human liver microsomes with NADPH ([4]; 30 min) [%] | % of compound remaining when incubated in human liver microsomes with NADPH ([4]; 45 min) [%] | % of compound remaining when incubated in human liver microsomes with NADPH ([4]; 60 min) [%] | IC50 [5, 8] [µM] | IC50 [5, 9] [µM] | other results
1 | CC(C)(C)C[C@H]1N[C@@H](C(=O)N[C@H]2C[C@@](C)(O)C2)[C@H](c2cccc(Cl)c2F)[C@@]12C(=O)Nc1cc(Cl)ccc12 [MI-519-64] | 100 | 71.95 | 64.86 | 48.47 | 43.38 | 41.19 | 43.03 | < 1 | without significant weight loss | 100 | 83.66 | 80.61 | 65.86 | 61.26 | 55.9 | 53.21 | < 1 | < 1 | IC50 ([2]; HCT-116, read-out: HCT-116 (p53-/-) IC50): > 10 µM; % Tumor Growth Inhib. T/C Control 750 mm^3 D29 (SJSA-1 xenograft tumors; PO 30 mg/kg): 20.7%; % Tumor Growth Inhib. T/C Control 750 mm^3 D29 (SJSA-1 xenograft tumors; PO 100 mg/kg): 5.3%; cell growth inhibition (in words) [5]: more potent than its epimer MI-519-65; also recorded: effectively inhibit cancer cell growth; CLz [6]: 1.8 L/h/kg; Vd ([6]; iv, read-out: Vz): 9 L/kg
2 | CC(C)(C)C[C@H]1N[C@@H](C(=O)N[C@H]2C[C@@H](O)C2)[C@H](c2cccc(Cl)c2F)[C@@]12C(=O)Nc1cc(Cl)ccc12 (stereo in doubt) [MI-519-63] | 100 | 66.01 | 53.79 | 46.44 | 29.41 | 27.72 | 23.28 | 2 | without significant weight loss | 100.00 | 77.75 | 59.66 | 50.42 | 31.21 | 26.74 | 21.5 | 2.3 | 2.1 | microsomal stability (in words) ([1]; rat liver microsomes): comparable microsomal stability to MI-219; % Tumor Growth Inhib. T/C Control 750 mm^3 D24 (SJSA-1 xenograft tumors; Exp. No. 2, SJSA-1 xenograft, PO 100 mg/kg, D24): 0.0%; microsomal stability (in words) ([4]; human liver microsomes): comparable microsomal stability to MI-219
